Measurements published in patent US20210403435A1, “HERBICIDAL COMPOUNDS” (SYNGENTA CROP PROTECTION AG, priority 2018, published 2021).

Columns and labels:
Assay in all cases: Post-emergence efficacy, glasshouse, evaluated after 13 days
Format in all cases: in vivo
[1] = test system: Amaranthus palmeri (AMAPA); conditions: Amaranthus palmeri, 312 h; post-emergence application, 500 g/Ha, evaluated after 13 days; read-out: Control of weed species AMAPA (100=total damage to plant; 0=no damage to plant)
How it was run: (§1)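 Injury assessed 13 days after a post-emergence spray, 0 = no damage and 100 = total damage. Spray liquid: compound in acetone/IF50 (Emulsogen EL360, N-methylpyrrolidone, Dowanol DPM), diluted with 0.25% or 1% sodium lauryl ether sulphate plus 1% ammonium sulphate.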

[2] = test system: Digitaria sanguinalis (DIGSA); conditions: Digitaria sanguinalis, 312 h; post-emergence application, 500 g/Ha, evaluated after 13 days; read-out: Control of weed species DIGSA (100=total damage to plant; 0=no damage to plant)
How it was run: as §1

Lolium perenne (LOLPE) = conditions: Lolium perenne, 312 h; post-emergence application, 500 g/Ha, evaluated after 13 days; read-out: Control of weed species LOLPE (100=total damage to plant; 0=no damage to plant)
How it was run: as §1

[3] = test system: Euphorbia heterophylla (EPHHL); conditions: Euphorbia heterophylla, 312 h; post-emergence application, 500 g/Ha, evaluated after 13 days; read-out: Control of weed species EPHHL (100=total damage to plant; 0=no damage to plant)
How it was run: as §1

Setaria faberi (SETFA) = conditions: Setaria faberi, 312 h; post-emergence application, 500 g/Ha, evaluated after 13 days; read-out: Control of weed species SETFA (100=total damage to plant; 0=no damage to plant)
How it was run: as §1

Eleusine indica (ELEIN) = conditions: Eleusine indica, 312 h; post-emergence application, 500 g/Ha, evaluated after 13 days; read-out: Control of weed species ELEIN (100=total damage to plant; 0=no damage to plant)
How it was run: as §1

[4] = test system: Echinochloa crus-galli (ECHCG); conditions: Echinochloa crus-galli, 312 h; post-emergence application, 500 g/Ha, evaluated after 13 days; read-out: Control of weed species ECHCG (100=total damage to plant; 0=no damage to plant)
How it was run: as §1

[5] = test system: Chenopodium album (CHEAL); conditions: Chenopodium album, 312 h; post-emergence application, 500 g/Ha, evaluated after 13 days; read-out: Control of weed species CHEAL (100=total damage to plant; 0=no damage to plant)
How it was run: as §1

[6] = test system: Ipomoea hederacea (IPOHE); conditions: Ipomoea hederacea, 312 h; post-emergence application, 500 g/Ha, evaluated after 13 days; read-out: Control of weed species IPOHE (100=total damage to plant; 0=no damage to plant)
How it was run: as §1

| Structure (SMILES) | pest or weed control at 500 g/ha [1] [%] | pest or weed control at 500 g/ha [2] [%] | pest or weed control at 500 g/ha (Lolium perenne (LOLPE)) [%] | pest or weed control at 500 g/ha [3] [%] | pest or weed control at 500 g/ha (Setaria faberi (SETFA)) [%] | pest or weed control at 500 g/ha (Eleusine indica (ELEIN)) [%] | pest or weed control at 500 g/ha [4] [%] | pest or weed control at 500 g/ha [5] [%] | pest or weed control at 500 g/ha [6] [%] |
| --- | --- | --- | --- | --- | --- | --- | --- | --- | --- |
| O=C(O)CC[n+]1ccc(C(=O)Nc2nccs2)cn1 [Compound A102] | 100 | 0 | 0 | 20 | 10 | 0 | 0 | 60 | 20 |
| C[S+]([O-])CCNC(=O)c1cc[n+](CCC(=O)O)nc1 (stereo not drawn) [Compound A103] | 90 | 90 | 40 | 50 | 100 | 90 | 80 | 90 | 50 |
| CS(=O)(=O)CCNC(=O)c1cc[n+](CCC(=O)O)nc1 [Compound A104] | 100 | 100 | 70 | 100 | 100 | 100 | 70 | 100 | 80 |
| O=C(O)CC[n+]1ccc(C(=O)Nc2ccc(F)cc2F)cn1 [Compound A106] | 100 | 40 | 50 | 60 | 90 | 70 | 10 | 50 | 30 |
| CN(CC#N)C(=O)c1cc[n+](CCC(=O)O)nc1 [Compound A107] | 100 | 40 | 0 | 100 | 60 | 20 | 60 | 20 | 20 |
| O=C(O)CC[n+]1ccc(C(=O)N2CCS(=O)(=O)CC2)cn1 [Compound A108] | 100 | 90 | 40 | 80 | 90 | 80 | 70 | 100 | 70 |
| O=C(O)CC[n+]1ccc(C(=O)N2CC[S+]([O-])CC2)cn1 [Compound A109] | 100 | 80 | 30 | 90 | 90 | 90 | 70 | 90 | 60 |
| CN(C)S(=O)(=O)CCNC(=O)c1cc[n+](CCC(=O)O)nc1 [Compound A110] | 90 | 100 | 60 | 60 | 90 | 30 | 50 | 50 | 20 |
| CNS(=O)(=O)CCNC(=O)c1cc[n+](CCC(=O)O)nc1 [Compound A111] | 100 | 100 | 70 | 90 | 100 | 100 | 90 | 90 | 40 |
| O=C(O)CC[n+]1ccc(C(=O)N2CCSCC2)cn1 [Compound A112] | 100 | 100 | 30 | 90 | 90 | 70 | 40 | 90 | 50 |
